Measured values as given in patent publication US20110288082A1, “METHODS AND COMPOSITIONS FOR INHIBITION OF THE TRANSITIONAL ENDOPLASMIC RETICULUM ATPASE” (priority 2010, published 2011).
Where “and” joins values, the source holds several entries; their conditions need not be identical. Equal entries are not always repeated. Where two headings read alike, the source gives them in different places.

Columns and labels:
[1] = biological target: p97 (Homo sapiens, UniProt P55072); assay: p97 ATPase assay (Kinase Glo Plus; biomol green for compounds that interfere with luciferase); format: biochemical
Method: Assay Buffer (20 μL of 2.5× concentration, where 1×=50 mM Tris pH 7.4, 20 mM MgCl2, 1 mM EDTA, 0.5 mM TCEP) was dispensed into each well of a 96 well plate. Purified p97 (25 μL of 50 μM) was diluted in 975 μL, of 1× Assay Buffer and 10 μL was dispensed in each well. Test compound (10 μL) or 5% DMSO (10 μL) was then added to each well and the plate was incubated at room temperature for 10 min. The ATPase assay was carried out by adding to each well 10 μL of 500 μM ATP (pH 7.5), incubating at room temperature for 60 min, and then adding 50 μL Kinase Glo Plus reagent (Promega) followed by a final 10 min incubation at room temperature in the dark. Luminescence was read on an Analyst AD (Molecular Devices). Compounds were assayed at a range of concentrations (0, 0.048, 0.24, 1.2, 6, 30 μM) in triplicate. The percent of remaining activity for each reaction was calculated using the following mathematical expression: ((Test Compound-High Control)/(Low Control-High Control))*100. Test_Compound is defined as wells containing test compound, Low_Control is defined as wells containing DMSO, High_Control is defined as wells containing no p97 protein. […] The result was expressed as mean +/− standard error. For assays with Myriad 12 and 19, 100 μL of biomol green reagent (Enzo Life Sciences) was added to each well instead of kinase Glo Plus (Promega) and absorbance at 630 nm was measured. This was done because these compounds interfered with luciferase activity. […]

[2] = test system: p97-dependent Ub^G76V-GFP degradation in HeLa cells; assay: Ub^G76V-GFP degradation (turn-over) assay; format: cell-based, human
Method: Ub^G76V-GFP Degradation Assay
Two GFP images with 100 ms exposure time per well were acquired and the average GFP intensity per area of a HeLa cell was determined by using MetaXpress software. Mean GFP intensity of 300-500 cells was calculated using Excel. Normalized GFP intensity was calculated using the following formula: (Test compound−Background)/(Basal GFP intensity—Background). Where: Test compound is defined as Mean GFP intensity of Ub^G76V-GFP-expressing cells treated with the test compound. Background is defined as background GFP intensity of HeLa cells. Basal GFP intensity is defined as mean GFP intensity of Ub^G76V-GFP-expressing cells treated with DMSO. […] The percent of remaining k for each compound is calculated using the following formula: (Test compound/DMSO control)*100. Where: Test_compound is defined as k determined from wells containing test compound, DMSO control is defined as k determined from wells containing DMSO.

[3] = Homo sapiens, HeLa, read-out: IC50 (μM) Ub^G76V-GFP turn over, p97-dependent Ub^G76V-GFP degradation turn-over assay
[4] = purified p97, ATP, 60 min room temperature, mean +/- standard error
[5] = Homo sapiens, HeLa, read-out: IC50 (μM) Ub^G76V-GFP turn over, Ub^G76V-GFP-expressing HeLa cells, degradation rate constant k from 90 to 180 min, mean +/- standard error

Chain of p97 (P55072 2-806 limits assumed): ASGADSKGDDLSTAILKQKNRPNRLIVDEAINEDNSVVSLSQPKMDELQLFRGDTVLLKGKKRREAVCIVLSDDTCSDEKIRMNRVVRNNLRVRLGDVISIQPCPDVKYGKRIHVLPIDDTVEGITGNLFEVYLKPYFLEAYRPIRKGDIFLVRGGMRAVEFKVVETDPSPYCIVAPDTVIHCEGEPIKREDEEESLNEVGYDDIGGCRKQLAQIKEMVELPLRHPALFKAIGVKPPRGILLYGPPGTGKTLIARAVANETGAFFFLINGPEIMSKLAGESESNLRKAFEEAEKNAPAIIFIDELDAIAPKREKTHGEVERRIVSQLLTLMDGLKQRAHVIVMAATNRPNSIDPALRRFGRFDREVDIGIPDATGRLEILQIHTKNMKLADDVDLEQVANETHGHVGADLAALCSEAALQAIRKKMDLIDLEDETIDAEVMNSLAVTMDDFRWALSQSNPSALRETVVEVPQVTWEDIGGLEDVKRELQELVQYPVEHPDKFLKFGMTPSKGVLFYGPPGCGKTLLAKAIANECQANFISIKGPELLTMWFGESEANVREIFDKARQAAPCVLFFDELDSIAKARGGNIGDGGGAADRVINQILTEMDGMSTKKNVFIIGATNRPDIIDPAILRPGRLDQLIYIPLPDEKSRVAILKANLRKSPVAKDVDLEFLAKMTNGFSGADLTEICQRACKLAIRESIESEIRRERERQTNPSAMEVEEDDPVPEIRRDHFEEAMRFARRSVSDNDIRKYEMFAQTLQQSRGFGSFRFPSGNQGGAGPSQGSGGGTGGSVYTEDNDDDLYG

SMILES | IC50 ([1]; p97 ATPase assay) [µM] | IC50 [2, 3] [µM] | IC50 [1, 4] | IC50 [2, 5] [µM] | IC50 ([2]; read-out: IC50 (μM) Ub^G76V-GFP turn over, Ub^G76V-GFP-expressing HeLa cells, degradation rate constant k from 90 to 180 min, mean +/- standard error) [µM]
Clc1cccc(CNc2nc(-c3ccccc3)nc3ccccc23)c1 [Cpd I-12] | 28 ± 9 | 17 ± 4 |  |  | 
Clc1ccccc1CNc1nc(-c2ccccc2)nc2ccccc12 [Cpd I-14] |  | 11 ± 3 |  |  | 
Clc1ccc(CNc2nc(-c3ccccc3)nc3ccccc23)cc1 [Cpd I-15] | > 30 | 15 ± 3 |  |  | 
Fc1ccccc1-c1nc(NCc2ccccc2Cl)c2ccccc2n1 [Cpd I-16] | 26 ± 12 | 15 ± 3 |  |  | 
CN(Cc1ccccc1)c1nc(-c2ccccc2)nc2ccccc12 [Cpd I-25] |  | 17 ± 5 |  |  | 
CN(Cc1ccccc1)c1nc(-c2ccccc2F)nc2ccccc12 [Cpd I-26] | 25 ± 4 | 6 ± 2 |  |  | 
CN(Cc1ccccc1)c1nc(-c2ccccc2[N+](=O)[O-])nc2ccccc12 [Cpd I-27] | 25 ± 11 | 11 ± 6 |  |  | 
CC(Nc1nc(-c2ccccc2)nc2ccccc12)c1ccccc1 (stereo not shown) [Cpd I-29] | 27 ± 14 | 13 ± 1 |  |  | 
CC(Nc1nc(-c2ccccc2F)nc2ccccc12)c1ccccc1 (stereo not shown) [Cpd I-31] | > 30 | 15 ± 4 |  |  | 
Clc1ccc2c(NCc3ccccc3)nc(-c3ccccc3)nc2c1 [Cpd I-32] |  | 12 ± 4 |  |  | 
c1ccc(-c2nc(N3CCc4ccccc4C3)c3ccccc3n2)cc1 [Cpd I-35] | > 30 | 19 ± 5 |  |  | 
Fc1ccccc1-c1nc(NCc2ccccc2)c2ccccc2n1 [I-1] |  |  | 1.1 µM and 3 µM | 8 ± 1.7 | 9 ± 1.3
c1ccc(CNc2nc(-c3ccccc3)nc3ccccc23)cc1 [I-2] |  |  | 4.2 ± 2.3 µM | 12 ± 3 | 
Clc1ccccc1-c1nc(NCc2ccccc2)c2ccccc2n1 [I-3] |  |  |  | 8 ± 3 | 
O=[N+]([O-])c1cccc(-c2nc(NCc3ccccc3)c3ccccc3n2)c1 [I-4] |  |  |  | 4 ± 1.6 | 
Cc1cccc(-c2nc(NCc3ccccc3)c3ccccc3n2)c1 [I-5] |  |  | 4.2 ± 0.2 µM | 17 ± 4 | 
Clc1ccc(-c2nc(NCc3ccccc3)c3ccccc3n2)cc1 [I-6] |  |  | 5.5 ± 1.9 µM | 20 ± 3 | 
O=[N+]([O-])c1ccc(-c2nc(NCc3ccccc3)c3ccccc3n2)cc1 [I-8] |  |  | 11 ± 6 µM | 19 ± 7 | 

SMILES | IC50 ([1]; p97 ATPase assay) [µM] | IC50 [2, 3] [µM] | IC50 [1, 4] | IC50 [2, 5] [µM] | IC50 ([2]; read-out: IC50 (μM) Ub^G76V-GFP turn over, Ub^G76V-GFP-expressing HeLa cells, degradation rate constant k from 90 to 180 min, mean +/- standard error) [µM]
COc1ccc(-c2nc(NCc3ccccc3)c3ccccc3n2)cc1 [I-9] |  |  | 1.6 ± 0.3 µM | 15 ± 2 | 
Cc1ccc(-c2nc(NCc3ccccc3)c3ccccc3n2)cc1 [I-10] |  |  | 5.7 ± 0.7 µM | 13 ± 2 | 
Clc1ccc(-c2nc(NCc3ccccc3)c3ccccc3n2)cc1Cl [I-11] |  |  | 7.1 ± 0.4 µM | 37 ± 6 | 
Fc1ccc(CNc2nc(-c3ccccc3)nc3ccccc23)cc1 [I-13] |  |  | 11 ± 3 µM | 19 ± 3 | 
COc1ccc(-c2nc(NCc3ccc(F)cc3)c3ccccc3n2)cc1 [I-17] |  |  | 7.8 ± 0.4 µM | 9.8 ± 3 | 
COc1ccc(CNc2nc(-c3ccc(OC)cc3)nc3ccccc23)cc1 [I-20] |  |  | 13 ± 4 µM | 15 ± 5 | 
COc1ccc(-c2nc(NCc3ccc(C)cc3)c3ccccc3n2)cc1 [I-21] |  |  | 8 ± 2 µM | 12 ± 2 | 
COc1ccc(-c2nc(NCc3ccc(Cl)cc3)c3ccccc3n2)cc1 [I-22] |  |  | 8 ± 2 µM | 9.3 ± 1 | 
Fc1ccc(CNc2nc(-c3ccc(Cl)cc3)nc3ccccc23)cc1 [I-23] |  |  | 8 ± 0.2 µM | 20 ± 5 | 
Cc1cccc(-c2nc(NCc3ccc(F)cc3)c3ccccc3n2)c1 [I-24] |  |  | 15 ± 2 µM | 12 ± 0.8 | 
CN(Cc1ccccc1)c1nc(-c2ccc([N+](=O)[O-])cc2)nc2ccccc12 [I-28] |  |  | 8.4 ± 4 µM | 28 ± 4 | 
Cc1ccc(-c2nc(NC(C)c3ccccc3)c3ccccc3n2)cc1 (stereo not shown) [I-30] |  |  | 7 ± 4 µM | 17 ± 4 | 
Cc1ccc(-c2nc(NCc3ccccc3)c3ccc(Cl)cc3n2)cc1 [I-33] |  | 24 ± 5 |  |  | 
COc1ccc(-c2nc(NCc3ccccc3)c3ccc(Cl)cc3n2)cc1 [I-34] | 25 ± 11 | 70 ± 30 |  |  | 
c1ccc(CNc2nc(Nc3ccccc3)nc3ccccc23)cc1 [II-1] |  |  |  | 3.1 ± 0.4 | 
Cc1ccc(Nc2nc(NCc3ccccc3)c3ccccc3n2)cc1 [II-2] |  |  | 2.2 ± 0.4 µM | 6.3 ± 1.4 | 
Clc1ccc(Nc2nc(NCc3ccccc3)c3ccccc3n2)cc1 [II-3] |  |  | 5.4 ± 2 µM | 5.9 ± 1.2 | 
